# How the values were obtained:
# Format in all cases: cell-based, Listeria monocytogenes
# [1] = tested on: L. monocytogenes; test: Lethality studies: ACS and LAE sprayed into shrink-wrap bags, inoculated hams, 24 h at 4° C.; conditions: ca. 7.0 log10 CFU per ham
# Source text: (§1) Bacterial Strains: Using a procedure described previously (Porto, A. C. S., et al., Journal of Food Protection, 65: 308-315 (2002)), approximately equal numbers of each of the following five strains of L. monocytogenes were used as a cocktail in this study: (i) Scott A (serotype 4b, clinical isolate); (ii) H7776 (serotype 4b, frankfurter isolate); (iii) LM-101M (serotype-4b, beef and pork sausage isolate); (iv) F6854 (serotype 1/2a, turkey frankfurter isolate); and (v) MFS-2 (serotype 1/2a, environmental isolate from a pork processing plant). For each experiment isolates were passed twice in brain heart infusion (BHI; Difco Laboratories, Detroit, Mich.) broth at 37° C. so that cells would be in the stationary phase for inoculating hams. Stock cultures were maintained by storage in BHI plus 10% (wt/vol) glycerol in 1.5-ml portions in cryovials and held at −80° C.
# Lethality Studies: To evaluate the lethality of acidic calcium sulfate (ACS; Safe2O-RTE 01, Mionix Corp., Naperville, Ill.) and lauramide arginine ester (LAE; Ethyl-N-dodecanoyl-L-arginate hydrochloride; CAS No. 60372-77-2; Mirenat-N, Vedeqsa, Barcelona, Spain; also known as lauric arginate), “table brown” hams (water, ground ham trims, brine, dextrose, sugar, sodium phosphate, sodium erythorbate, and sodium nitrite; ca. 3 pounds each ham) were processed and vacuum-sealed by a commercial processor (Hatfield Quality Meats, Hatfield, Pa.). The hams were boxed, transported back to the laboratory, and stored at 4° C. for up to 7 days. Each ham was aseptically removed from its original packaging, spot inoculated with 2 mL of the cocktail using a pipette to achieve a target level of ca. 7.0 log10 CFU per ham, and then transferred to a high-performance shrink-wrap bag (B2570T, Cryovac, Duncan, S.C.). Just prior to introducing the hams, the inside of each shrink-wrap bag was sprayed with 0, 2, 4, 6, or 8 mL of either a 1:1 (1 part ACS: 1 part dH2O) or 1:2 (1 part ACS:2 parts dH2O) solution of ACS or a 5% (5 parts LAE:95 parts dH2O) or 10% (10 parts LAE:90 parts dH2O) solution of LAE. The antimicrobials for these experiments were introduced via a 24-ounce plastic spray bottle (Koch Supplies, Kansas City, Mo.). Each bag was then vacuum sealed to 950 mBar using a Multivac A300/16 vacuum-packaging unit (Sepp Haggemüller K G, Wolfertschwenden, Germany), submerged in hot (88° C.) water for approximately 5 seconds to shrink the bag, and transferred to a 4° C. incubator and held for 24 h. In a single trial, three hams were analyzed for each concentration and volume of ACS and LAE tested after 24 h of refrigerated storage.
# Microbiological Analyses: Surviving L. monocytogenes were enumerated using the USDA/ARS package rinse method (Luchansky J. B., et al., Journal of Food Protection, 65: 567-570 (2002)) and spread-plating 250 uL of the resulting rinse fluid or dilutions thereof onto duplicate modified Oxford agar plates (MOX; Cook, L. V., Isolation and identification of Listeria monocytogenes from red meat, poultry, egg, and environmental samples, Chapter 8, In: USDA/FSIS Microbiology Laboratory Guidebook (3rd ed., Revision 2), Washington, D.C. (1999)) using a sterile cell spreader and incubating for 48 h at 37° C. Listeria numbers were expressed as log10 CFU per ham with each package containing a single ham; the detection limit was 1.48 log10 CFU/ham. […]
# [2] = tested on: L. monocytogenes; test: Validation studies of initial post-process lethality on hams; conditions: for average decrease in pathogen levels compared to untreated control hams: ca. 7.0 log10 CFU per ham, after 24 h at 4° C.
# Source text: as §1
# Validation Studies: To validate the initial post-process lethality of ACS and LAE, a fresh batch of the same formulation of hams was obtained from the same commercial manufacturer as described previously. The hams were spot inoculated with 2 mL of the L. monocytogenes cocktail to achieve a target level of ca. 7.0 log10 CFU per ham, transferred to shrink-wrap bags (Cryovac) that were previously sprayed on the inside with 0, 2.5, 4.5, or 6.5 mL of a 1:2 solution of ACS or a 5% solution of LAE, vacuum sealed, submerged in hot (88° C.) water, and placed at 4° C. In each of three trials, three hams were analyzed at each concentration and volume of ACS and LAE tested after 24 h of refrigerated storage.
# (§2) Microbiological Analyses: Surviving L. monocytogenes were enumerated using the USDA/ARS package rinse method (Luchansky J. B., et al., Journal of Food Protection, 65: 567-570 (2002)) and spread-plating 250 uL of the resulting rinse fluid or dilutions thereof onto duplicate modified Oxford agar plates (MOX; Cook, L. V., Isolation and identification of Listeria monocytogenes from red meat, poultry, egg, and environmental samples, Chapter 8, In: USDA/FSIS Microbiology Laboratory Guidebook (3rd ed., Revision 2), Washington, D.C. (1999)) using a sterile cell spreader and incubating for 48 h at 37° C. Listeria numbers were expressed as log10 CFU per ham with each package containing a single ham; the detection limit was 1.48 log10 CFU/ham. Periodically, isolates were retained from randomly selected samples and confirmed as L. monocytogenes following the recommended/standard USDA/FSIS protocol (Cook, 1999).
# [3] = tested on: L. monocytogenes; test: Shelf-life studies: outgrowth on hams during refrigerated storage up to 60 days; conditions: for reduction of pathogen levels relative to untreated samples: after 24 h at 4° C.; for levels of L. monocytogenes compared to untreated control hams (statistical analyses): all volumes tested
# Source text: as §1
# Shelf-Life Studies: To evaluate the efficacy of ACS and LAE over the expected refrigerated shelf life of the product, a fresh batch of the same formulation of hams was obtained from the same commercial manufacturer as described previously. For these studies, hams were spot inoculated with 2 mL of the L. monocytogenes cocktail to achieve a target level of either 3.0 or 7.0 log10 CFU per ham. At each inoculation level one portion of the hams was transferred to shrink-wrap bags that were previously sprayed on the inside with 4, 6, or 8 mL of a 1:2 solution of ACS applied using a commercial spraying apparatus (AutoJet Spray System #45570-22-10-120V, Spraying Systems Co., Wheaton, Ill.) and commercial bagging apparatus (Taped Bag Loader #BL189, Cryovac). An otherwise similar portion of the inoculated hams was transferred to shrink-wrap bags that just prior to introduction of the hams were sprayed with 4, 6, or 8 mL of a 5% LAE solution using the commercial spraying and bagging apparatus. Control hams were also spot inoculated with either 3.0 or 7.0 log10 CFU of L. monocytogenes per ham and were transferred to shrink-wrap bags that were not sprayed with either compound. As described previously, hams were vacuum-sealed, submerged in hot (88° C.) water, and stored at 4° C. Hams were analyzed 1, 7, 14, 21, 28, 40, and, 60 days post-inoculation. For each of two trials, three hams were analyzed at each sampling point for both inoculation levels and for both chemicals tested.
# as §2
smiles,measurement,setting,value
"CCCCCCCCCCCC(=O)N[C@@H](CCCNC(=N)N)C(=O)OCC.Cl [LAE, Ethyl-N-dodecanoyl-L-arginate hydrochloride]",decrease in L. monocytogenes levels,[1]; 2 mL of 5% solution of LAE,ca. 3.3 log10 CFU/ham
same,decrease in L. monocytogenes levels,[1]; 4 mL of 5% solution of LAE,ca. 6.5 log10 CFU/ham
same,decrease in L. monocytogenes levels,[1]; 6 mL of 5% solution of LAE,~5.6 log10 CFU/ham
same,decrease in L. monocytogenes levels,[1]; 8 mL of 5% solution of LAE,ca. 6.5 log10 CFU/ham
same,decrease in pathogen levels,"[1]; 10% solution of LAE, all 4 application volumes (2, 4, 6, 8 mL)",ca. 6.5 log10 CFU/ham
same,average decrease in pathogen levels compared to untreated control hams,[2]; 2.5 mL of 5% solution of LAE,ca. 4.6 log10 CFU/ham
same,average decrease in pathogen levels compared to untreated control hams,[2]; 4.5 mL of 5% solution of LAE,~5.9 log10 CFU/ham
same,reduction of levels of L. monocytogenes on the surface of hams (conclusion),"[2]; 5% solution of LAE, within 24 h at 4° C.",at least 5.0 log10 CFU/ham
same,average decrease in pathogen levels compared to untreated control hams,[2]; 6.5 mL of 5% solution of LAE,~6.1 log10 CFU/ham
same,levels of the pathogen within 24 h,"[3]; 4, 6, and 8 mL of 5% solution of LAE, inoculum ca. 3.0 log10 CFU/ham, 4° C., detection limit 1.48 log10 CFU/ham",below the limit of detection
same,increase of L. monocytogenes levels after 60 days,"[3]; 4 and 6 mL of 5% LAE solution, inoculum ca. 3.0 log10 CFU/ham, 4° C.",ca. 2.0 log10 CFU/ham
same,increase of pathogen levels thereafter (after 24 h) within 60 days,"[3]; 4 mL of 5% solution of LAE, inoculum ca. 7.0 log10 CFU/ham, 4° C.",ca. 4.6 log10 CFU/ham
same,reduction of pathogen levels relative to untreated samples,"[3]; 4 mL of 5% solution of LAE, inoculum ca. 7.0 log10 CFU/ham",~5.1 log10 CFU/ham
same,increase of pathogen levels thereafter (after 24 h) within 60 days,"[3]; 6 mL of 5% solution of LAE, inoculum ca. 7.0 log10 CFU/ham, 4° C.",~3.0 log10 CFU/ham
same,reduction of pathogen levels relative to untreated samples,"[3]; 6 mL of 5% solution of LAE, inoculum ca. 7.0 log10 CFU/ham",~5.4 log10 CFU/ham
same,levels of L. monocytogenes after 60 days,"[3]; 8 mL of 5% LAE solution, inoculum ca. 3.0 log10 CFU/ham, 4° C., detection limit 1.48 log10 CFU/ham",remained below the detection limit
same,increase of pathogen levels thereafter (after 24 h) within 60 days,"[3]; 8 mL of 5% solution of LAE, inoculum ca. 7.0 log10 CFU/ham, 4° C.",~2.0 log10 CFU/ham
same,reduction of pathogen levels relative to untreated samples,"[3]; 8 mL of 5% solution of LAE, inoculum ca. 7.0 log10 CFU/ham",~5.5 log10 CFU/ham
same,duration of control of further outgrowth of L. monocytogenes,"[3]; initial inoculum of ca. 7.0 log10 CFU/ham, refrigerated storage",≥ 28 days
same,levels of L. monocytogenes compared to untreated control hams (statistical analyses),"[3]; inoculum ca. 3.0 log10 CFU/ham, day 1 through day 40",appreciably lower
same,levels of L. monocytogenes compared to untreated control hams (statistical analyses),"[3]; inoculum ca. 7.0 log10 CFU/ham, day 1 through day 60",appreciably lower

# Reference: US9241497B2, “Method and apparatus for treatment of food products” (The United States of America, as represented by the …, priority 2005, dated 2016)
